# Measurements: US20190314312A1, “COMBINATION THERAPY TO INCREASE ENDOGENOUS NITRIC OXIDE (NO) SYNTHESIS” (Yeda Research and Development Co. Ltd., priority 2016, published 2019)
# Key:
# Assay type in all cases: in vivo, mouse
# C57BL/6J.OlaaHsd mice = experiment: DSS-induced colitis, treatment with arginine, citrulline, NaNO2, fisetin or citrulline plus fisetin
# Method: Colitis was induced in Vav1^Cre:As1^f/f mice and CD11c^Cre:As1^f/f with 1.5% DSS and with 0.8% DSS in the Villin^Cre:As1^f/f (wt/vol), (Dextran Sodium Sulfate, MP Biomedicals; molecular weight 36,000-50,000 Da). The powder was dissolved in the drinking water for 6 days, followed by 5 days of supplementing regular water^20. Each group consisted of eight to ten, 8-10 weeks old, male mice. Experiments were repeated at least three times. “f/f”—flox/flox.
# Colonoscopy was performed on days 7 and 11 of the experiment to monitor for severity of colitis. For the procedure, a high resolution mouse video endoscopic system was used, which consists of a miniature endoscope (scope 1.9 mm outer diameter), a xenon light source, a triple chip camera, and an air pump to achieve regulated inflation of the mouse bowel (Karl Storz, Tuttlingen, Germany). Mice were anesthetized by the administration of 4-5% of isoflurane in 100% oxygen at a rate of 0.2-0.5 L/min or by the administration of 100 mg/kg Ketamine/10 mg/kg Xylazine mixture IP, after which, the endoscope was introduced via the anus and the colon was carefully insufflated with an air pump before analysis of the colonic mucosa. The endoscopic procedure was viewed on a color monitor and digitally recorded on tape. Colitis was scored according to the Murine endoscopic index of colitis severity (MEICS), considering differences in the thickness of the bowel wall, changes in blood vessel integrity, mucosal surface, stool consistency or the presence of fibrin, scored each between 0 and 3. The cumulative score ranged from 0 (no signs of inflammation) to 15 (signs of severe inflammation)^21.
# Mice were treated with 1% (wt/vol) DSS for 6 days, followed by administration of either arginine 1% (wt/vol) solution (Sigma-Aldrich, St. Louis, Mo., catalogue number A8094) in drinking water, citrulline 1% (wt/vol) (L-citrulline, Chem-Impex International), NaNO2 100 mg (Sigma-Aldrich, St. Louis, Mo., catalogue number S2252), or water as control for additional 6 days.
# Fisetin was given by intraperitoneal (i.p.) injection (1 mg/animal) in 30 μL of DMSO twice weekly. The control group was injected with 30 μL of DMSO twice weekly. Each group consisted of ten, 8-weeks old, male mice. Experiments were repeated three times.
# Histopathology. On the day of sacrifice, colons were removed and their length was measured. Colon was fixed in 2.5% PFA solution overnight at 4° C., then embedded in paraffin, sectioned and stained with H&E. Tissues were examined in a blinded manner by a pathologist and scored on a 0-4 scale based on the parameters of inflammation severity^20.
# control mice = experiment: DSS colitis (0.8% DSS) in control mice, fisetin or NaNO2; details: control (WT) mice, 0.8% DSS 5 days, fisetin 1 mg IP twice, FIGS. 4L-N
# Method: Colitis was induced on C57BL/6J.OlaaHsd mice. Mice were treated with 1% DSS for 6 days, followed by administration of either fiselin (1 mg in 30 μl DMSO IP, twice, in 3 days interval) citrulline 1% (wt/vol) solution in drinking water, the combination of both treatments or only DMSO as a control (30 μl DMSO IP, twice, in 3 days interval). […] FIGS. 4L-N—Colitis was induced on enterocytes CKO mice and compared to controls. Mice were treated with 0.8% DSS for 5 days, followed by administration with either NO donors; NaNO2 (100 mg/kg) or fisetin (1 mg in 30 μl DMSO IP, twice, in 3 days interval). […] Note that colitis severity is reduced by activating As1 in enterocytes, by citrulline and fisetin supplementation.
# Colitis was induced in Vav1^Cre:As1^f/f mice and CD11c^Cre:As1^f/f with 1.5% DSS and with 0.8% DSS in the Villin^Cre:As1^f/f (wt/vol), (Dextran Sodium Sulfate, MP Biomedicals; molecular weight 36,000-50,000 Da). […]
# Colonoscopy was performed on days 7 and 11 of the experiment to monitor for severity of colitis. […] The endoscopic procedure was viewed on a color monitor and digitally recorded on tape. Colitis was scored according to the Murine endoscopic index of colitis severity (MEICS), considering differences in the thickness of the bowel wall, changes in blood vessel integrity, mucosal surface, stool consistency or the presence of fibrin, scored each between 0 and 3. […]
# As1 = experiment: Immunohistochemistry staining of distal colon sections for As1; details: after colitis induction, vs control mice with colitis, FIG. 3E, 4A
# Method: Four micrometer paraffin embedded tissue sections were deparaffinized and rehydrated. Endogenous peroxidase was blocked with three percent H2O2 in methanol. Sections undergoing for ALS staining were incubated in cold acetone at −20° C. for 7 minutes. For F4/80 and MAC-2 staining, the present inventors performed antigen retrieval in Tris-EDTA pH 9 and 10 mM citric acid pH 6, for 10 minutes, respectively, using a low boiling program in the microwave to break protein cross-links and unmask antigens. After pre-incubation with 20% normal horse serum and 0.2% Triton X-100 for 1 hour at RT (root temperature), sections were incubated with the primary antibodies as follow; ASL (1:100, Abcam, ab97370, CA, USA); F4/80 (1:50, Serotec, Kidllington, UK); Mac-2 (1:400, Cedarlane, N.C., USA). For fluorescent double-staining of ASL and CD11c the mouse anti ASL (1:50 Santa Cruz Biotechnology, Inc. sc-166787, TX, USA) and rabbit anti CD11c (1:50, ab52632) were used. All antibodies were diluted in PBS containing 2% normal horse serum and 0.2% Triton. Sections were incubated overnight at RT followed by 48 hours at 4° C. Sections were washed three times in PBS and incubated with secondary biotinylated IgG at RT (room temperature) for 1.5 hour, washed three times in PBS and incubated with avidin-biotin Complex (Elite-ABC kit, Vector Lab, CA, USA) at RT for additional 90 minutes followed by DAB (Sigma) reaction. For the fluorescent staining the CY2 conjugated anti mouse and CY3 conjugated streptavidin (1:100 and 1:200 respectively, Jackson ImmunoResearch, West Grove, Pa.) were used.
smiles,measurement,setting,value
"O=c1c(O)c(-c2ccc(O)c(O)c2)oc2cc(O)ccc12 [fisetin, 3,7, 3′, 4′-tetrahydroxyflavone]",weight loss,"C57BL/6J.OlaaHsd mice; 1% DSS 6 days, then fisetin 1 mg IP twice, citrulline 1% in drinking water or both vs DMSO control, FIG. 4B",significant weight loss is documented in the control group compared to the treated mice
same,colitis severity in all parameters,"C57BL/6J.OlaaHsd mice; fisetin vs control, FIG. 4A-E",improved colitis severity in all parameters
same,colon length,"C57BL/6J.OlaaHsd mice; fisetin, citrulline or both vs DMSO control, FIG. 4D",significant longer
same,histological score,"C57BL/6J.OlaaHsd mice; fisetin, citrulline or both vs DMSO control, FIG. 4E",significant reduction
same,"effect of treatment on colitis (survival, body weight gain, colitis score)",control mice,improved colitis severity
same,"effect of treatment on colitis (survival, body weight gain, colitis score)",control mice; listed as Fisetin,effective in the control group
same,"As1 expression in distal colon sections (intestine, enterocytes)",As1,up regulation
same,"As1 expression in distal colon sections (intestine, enterocytes)",As1; listed as fesitin,upregulated
